# According to patent US20200308162A1, “DRUGS AND COMPOSITIONS FOR OCULAR DELIVERY” (Graybug Vision, Inc., priority 2017, published 2020):
# “Also recorded” adds a separate entry of the source.
# Tests used:
# [1] = Drug release kinetics of Timolol and ethacrynic acid prodrugs from polymer microparticles; assay type: physicochemical
# Protocol: The effect of polymer composition including monomer ratio and molecular weight, polymer end-groups (ester or acid), inherent viscosity and polymer blend ratios on particle degradation and drug release kinetics of Timolol-O-ethyl fumurate (17) was evaluated and is illustrated in FIG. 5. The rate of particle degradation was slowed and drug release was prolonged when the mole % of DL-lactide over glycolide was increased. By incorporating polymers with different monomer ratios (i.e., PLA, PLGA8515, PLGA525, PLGA5050 wherein 8515 refers to 85% DL-lactide and 15% glycolide) into the particles, it is possible to fine-tune the degradation rate of the particles to achieve a linear rate of drug release from the particles to minimize burst or lag and to extend the duration of release. […] The 78/22(PLA 5A/PLGA8515 4.5A) and 65/20/15(PLA 4A/PLGA6515 4.5A/PLGA5050 4A) polymer blends generated ideal particles for a 3-6 month linear release formulation. […] The rate of release was independent of the salt form. […] Thus, release rate is not solely dictated by the physicochemical properties of the linker, but rather must be attributed to a combination of parameters that may include linker type and site of linker conjugation.
# FIG. 6 illustrates the release kinetics of ethacrynic acid-PLA(n=4)-ethyl ester (1) from PLGA microparticles. The drug was released over a period of approximately 66 days.
# FIG. 8 and FIG. 9 illustrate the release kinetics of ethacrynic acid-PLA(n=4)-ethyl ester (1) and ethacrynic acid-PLA(n=6)-ethyl ester (25), respectively, from PLGA microparticles. The drug was released from a number of formulations over a period of greater than 90 days. […] Particles generated with 1% PVA in PBS was compared against particles generated in 1% PVA in water (FIG. 10).
# Based upon these initial formulation screens, the formulation comprising of 1% mPEG-PLGA and 99% PLA100 4.5A:PLGA8515 5A (77:22) was selected as the lead formulation for ECA-PLA(n=4) (1) and ECA-PLA(n=6) (25) prodrugs. The particles were prepared in 1% PVA in water. The release profiles for the lead ECA-PLA(n=4) (1) and ECA-PLA(=6) (25) particle formulations are illustrated in FIG. 11.
# [2] = In vitro stability of ethacrynic acid prodrugs at 37° C.; assay type: physicochemical; details: 37° C.
# Source text: As evidenced, both prodrugs of ethacrynic acid degrade steadily over the 6 day period. As the ester linkages are hydrolyzed, the parent compound is generated in a linear rate. The rate of degradation to the parent compound is faster for the shorter […] in comparison to the degradation kinetics for ethacrynic acid-PLA(n=4)-ethyl ester (1).
# Approximately 94% of the ECA-PLA(n=4) prodrug (1) has been converted to free ECA by day 6, in comparison to only 56% for ECA-PLA(n=6) (25). Also, by day 6, all the initial prodrug has been degraded into intermediates and free drug respectively.
# [3] = Percent drug loading of ethacrynic acid prodrug microparticles (RP-HPLC); assay type: physicochemical
# Protocol: To determine the percent drug loading (% DL), 10 mg of particles was weighed into a glass scintillation vial and dissolved with 10 mL of MeCN:water (1:1, v/v). The solution was filtered through a 0.2 μm nylon syringe filter and the drug content was determined by RP-HPLC referenced against a standard calibration curve.
# [4] = Degradation of ECA prodrugs heated at 60° C. in water/acetonitrile (HPLC-MS); assay type: physicochemical; details: 60° C. in 50/50 water (0.1% FA)/acetonitrile (0.1% FA)
# Protocol: Prodrugs of ECA were challenged by heating at 60° C. in 50/50 water (0.1% FA)/acetonitrile (0.1% FA), and the degradants were separated using a reverse phase HPLC equipped with a C-18 bonded stationary phase. The identification of various peaks was accomplished by mass spectrometry detector and retention time comparison with available standards.
# Chromatographic separation of ethacrynic acid parent compounds and their PLA conjugated derivatives was achieved using an Agilent 1260 Infinity II LCMS equipped with an Waters Symmetry C18 column (5 μm, 4.6 mm×150 mm) as the stationary phase and acetonitrile/water as the mobile phase. The gradient separation method is outlined in Table 4. The analysis was performed at an injection volume of 10 μL, a flow rate of 1.2 mL/min and a detection wavelength of 230 nm at 25° C. Retention times for ethacrynic acid and PLA-conjugated compounds are illustrated in Table 5.
# Table 6 illustrates the calculated mass and structure of all the individual intermediates and the parent compound. Calculated mass ions were extracted using a MS G6135B detector with positive and negative polarity acquisition between mass 100-1000, fragmentation at 250, gain at 1, threshold of 150, and speed of 2080 u/sec. Extracted ions and polarity for individual mass spectometry peak identification is outlined in Table 7.
# [5] = Mean size of ethacrynic acid prodrug encapsulated microparticles; assay type: physicochemical
# [6] = Drug solubility in water, DMSO and DCM (HPLC of filtered supernatant); details: thermodynamic from solid
# Protocol: For each test, approximately 5-10 mg was transferred to a 10 mL glass vial. Aqueous or organic solvent was added to each vial to achieve an overall concentration of 50 mg/mL. After vortexing aggressively for 2-3 minutes and sonicating in a bath sonicator for 5 minutes, undissolved drug was spun down at 1200 rpm for 5 minutes to generate a pellet. The supernatant was collected and filtered through a 0.2 μm nylon syringe filter into HPLC vials for drug content analysis. Drug concentration was determined by comparing against a standard calibration curve.
# [7] = In vitro drug release kinetics of Timolol prodrug microparticles in PBS and 1% Tween 20 (pH 7.4) at 37° C.; assay type: physicochemical
# Protocol: In vitro drug release kinetics were evaluated in a release medium composed of PBS and 1% Tween 20 (pH 7.4). Briefly, 10 mg of particles was suspended in 4 mL of the release medium The particle suspension was incubated on an orbital shaker at 150 rpm at 37° C. At various time points, 3 mL of release media was collected, and the suspension was replenished with 3 mL of fresh release media. Collected release samples were frozen and stored at −80° C. until analysis for drug content. The collected samples were filtered through a 0.2 μm syringe filter and analyzed by RP-HPLC. FIG. 17-FIG. 22 illustrate the total and parent Timolol release profile for the microparticles encapsulating bis-prodrugs of Timolol of Table 11.
# [8] = Stability of Timolol prodrugs in PBS via HPLC; assay type: physicochemical; details: PBS (100% PBS)
# Protocol: The stability of Compound 51 was measured in 100% serum (FIG. 27A), 50% serum and 50% PBS (FIG. 27B), and 100% PBS (FIG. 27C) via HPLC. Each point on the graph is the retention time of Compound 51, parent Timolol, and 4 breakdown products at day 0, 1, 2, 3, 4, or 5 as measured. […] The concentration of the breakdown product with a retention time of 5.454 minutes was higher than the concentration of parent Timolol (retention time=4.4 minutes).
# The stability of Compound 52 was measured in PBS (FIG. 28) and the stability of Compound 53 was measured in PBS (FIG. 29).
# rabbit eyes = details: topical eye drops, cited from earlier work
# monkey eyes = details: topical eye drops, cited from earlier work
# [9] = carboxylic acid; cited from earlier work
# glaucomatous monkey eyes = details: ointment, highest concentration of 2.5% ECA, four glaucomatous monkey eyes; cited from earlier work
# [10] = clinical trials and post-marketing clinical use; cited from earlier work
# [11] = PLA100 4.5A + 1% PEG-PLGA5050, polymer 200 mg/mL
# [12] = PLA100 4.5A + PLGA7525 6E (69:30) + 1% PEG-PLGA5050, polymer 200 mg/mL
# [13] = PLA100 4.5A + PLGA8515 5A (77:22) + 1% PEG-PLGA5050, polymer 200 mg/mL
# [14] = PLA100 4.5A + PLGA8515 5A + PLGA5050 4A (64:20:15) + 1% PEG-PLGA5050, polymer 200 mg/mL
# [15] = PLA100 4.5A + PLGA8515 5A + PLGA5050 4A (64:30:5) + 1% PEG-PLGA5050, polymer 200 mg/mL
# [16] = PLGA7525 4A + 1% PEG-PLGA5050, polymer 200 mg/mL
compound,measurement,setting,value
"C=C(CC)C(=O)c1ccc(OCC(=O)O[C@@H](C)C(=O)O[C@@H](C)C(=O)O[C@@H](C)C(=O)O[C@@H](C)C(=O)O[C@@H](C)C(=O)O[C@@H](C)C(=O)OCC)c(Cl)c1Cl [Compound 25, (S)-2-((S)-2-[(S)-2-((S)-2-(2-[2,3-Dichloro-4-(2-methylene-butyryl)-phenoxy]-acetoxy)-propionyloxy)-propionyloxy]-propionyloxy)-propionic acid (S)-1-((S)-1-ethoxycarbonyl-ethoxycarbonyl)-ethyl ester]",in vitro release profile of lead microparticle formulation,"[1]; 1% mPEG-PLGA and 99% PLA100 4.5A:PLGA8515 5A (77:22), prepared in 1% PVA in water, FIG. 11",much more linear release profile
same,rate of drug release as a function of drug loading,"[1]; microparticles with 13.5, 18.1, 27.4 and 38.2 % DL, FIG. 4",rate of drug release increased with increasing drug loading
same,rate of degradation of the prodrug,[2]; 6 days,degraded slightly slower
same,prodrug converted to free ECA by day 6,[2]; day 6,56%
same,% Drug loading,[3]; [11],13.83%
same,% Drug loading,[3]; [12],11.56%
same,% Drug loading,[3]; [13],12.29%
same,% Drug loading,[3]; [14],14.22%
same,% Drug loading,[3]; [15],13.53%
same,% Drug loading,[3]; [16],12.43%
same,% Drug loading,[3]; theoretical loading 15,13.5%
same,% Encapsulation Efficiency,[3]; theoretical loading 15,90.0%
same,% Drug loading,[3]; theoretical loading 20,18.1%
same,% Encapsulation Efficiency,[3]; theoretical loading 20,90.5%
same,% Drug loading,[3]; theoretical loading 30,27.4%
same,% Encapsulation Efficiency,[3]; theoretical loading 30,91.3%
same,% Drug loading,[3]; theoretical loading 40,38.2%
same,% Encapsulation Efficiency,[3]; theoretical loading 40,95.5%
same,hydrolysis products,[4],hydrolyze into five intermediates
same,Mean size,[5]; [11],27.62 um
same,Mean size,[5]; [12],26.95 um
same,Mean size,[5]; [13],27.88 um
same,Mean size,[5]; [14],26.59 um
same,Mean size,[5]; [15],26.27 um
same,Mean size,[5]; [16],26.19 um
same,solubility,"[6]; DMSO, organic solvent or mixture",> 50 mg/mL
same,solubility,[6]; water,< 0.1 mg/mL
"CC(=O)OCC(=O)O[C@H](COc1nsnc1N1CCOCC1)CN(C(=O)COC(C)=O)C(C)(C)C [Compound 52, Timolol-N,O-bis-Glycolic acid-OAc]",parent Timolol released relative to total release of prodrug and intermediates,"[7]; PBS and 1% Tween 20 (pH 7.4), 37° C.",primarily as native parent Timolol
same,maximum release duration,"[7]; in vitro, FIG. 21",approximately 70 days
same,stability / breakdown into parent Timolol and breakdown products,[8],breaks down over the course of 15 days; also recorded: breaks down into parent Timolol
"CC(=O)OCC(=O)N(C[C@@H](COc1nsnc1N1CCOCC1)OC(=O)COC(=O)C(C)OC(=O)C(C)O)C(C)(C)C (stereo partly drawn) [Compound 53, Timolol-N-Glycolic acid-OAc-O-Glycolic acid-PLA (n = 2)-OH]",linear (4-month) drug release,[7]; in vitro,did not exhibit linear drug release; also recorded: did not consistently meet the 4-month criteria
same,stability / breakdown into parent Timolol and breakdown products,[8],breaks down over the course of 8 days; also recorded: a significant amount of an additional breakdown product
"C=C(CC)C(=O)c1ccc(OCC(=O)O)c(Cl)c1Cl [ECA, ethacrynic acid]",ocular adverse effects,rabbit eyes; especially at higher doses,corneal edema and moderate diffuse superficial corneal erosion
same,effect on IOP,rabbit eyes; rabbit eyes,effective in decreasing IOP
same,ocular adverse effects,monkey eyes; especially at higher doses,corneal edema and moderate diffuse superficial corneal erosion
same,effect on IOP,monkey eyes; monkey eyes,effective in decreasing IOP
same,pka,[9],approximately 2.8
same,ocular adverse effects,glaucomatous monkey eyes,"mild eyelid edema, conjunctival hyperemia, and discharge"
CCN(CC)CCNC(=O)c1c(C)[nH]c(/C=C2\C(=O)Nc3ccc(F)cc32)c1C [Sunitinib],hepatotoxicity,[10],observed hepatotoxicity
